This is an account of results in US20060264418A1, “6-(2,2,2-Trifluoroethylamino-7-chloro-2,3,4,5-tetrahydro-1h-benzo[d] azephine as a 5-ht2c receptor agonist” (priority 2003, published 2006).

One assay concerns the target D2 dopaminergic receptor (Homo sapiens, UniProt P14416). Kind of assay: Radioligand receptor binding assay, D2 dopaminergic.
For another assay, the system named is male Long-Evans rats. The assay can be described thus: Chronic feeding assay. The class given is in vivo, rat. An excerpt: Animals: Obtain male Long-Evans rats (Harlan Sprague-Dawley, Indianapolis, Ind.) that are approximately one hundred-days old and have been maintained on a calorie rich diet since weaning (TD 95217, 40% calories from fat; Teklad, Madison, Wis.). House the rats individually with a 12 hr.:12 hr. light:dark cycle (lights on from about 22:00 hr. to about 10:00 hr.) and maintain rats on the same diet (TD 95217) with free access to water, for about 1-2 weeks to acclimate the rats to the environment. Dose rats orally with vehicle (10% acacia with 0.15% saccharin in water) once daily for at least 1 day (typically 1-2 days) to acclimate the rats to the procedures. Randomize the rats into groups so each group has similar mean body weights.
Chronic Feeding Assay: At between approximately 8:00 hr. and 10:00 hr. on day one of the assay, weigh and orally dose each rat with vehicle or test compound and return the animal to its home cage, with free access to food (pre-weighed) and water. For each of days 2-15, at between approximately 8:00 hr. and 10:00 hr., measure rat body weight and the weight of food consumed in the last 24 hr. period, and administer daily oral dose of test compound or vehicle. On days −2 and 15 measure total fat mass and lean mass by nuclear magnetic resonance (NMR) using an EchoMRI™ system (Echo Medical Systems, Houston Tex.). (See Frank C. Tinsley, Gersh Z. Taicher, and Mark L. Heiman, “Evaluation of a New Quantitative Magnetic Resonance (QMR) Method for Mouse Whole Body Composition Analysis”, Obesity Research, submitted May 1, 2003.)

The target of a further assay is T1, human 5-HT2B receptor (Homo sapiens, UniProt P41595).
T1 construct: expressed in transfected cells; host or cells: AV12 cells
Kind of assay: G alpha q-GTPγ[35S] binding agonist activity assay (ISPA), 5-HT2B. The class given is biochemical. As for the experimental part:
Agonist Activity Assays (G Alpha g-GTPγ[^35S] Binding Assays)
The 5-HT2 receptors are functionally coupled to specific G-proteins. Agonist activation of 5-HT2 G-protein-coupled receptors results in the release of GDP from the α-subunit (G alpha q or G alpha i) of the G-protein and the subsequent binding of GTP. The binding of the stable analog GTPγ[^35S] is an indicator of receptor activation (i.e. agonist activity).
The area under the dose response curve (AUC) is also determined for each receptor subtype and used to measure the test compound's selectivity for the 5-HT2C receptor over the 5-HT2A and 5-HT2B receptors, expressed as Selectivity Ratios (AUC 2C/2A and AUC 2C/2B, respectively). The Selectivity Ratios allow the assessment of selectivity based on both potency and efficacy. A selectivity measure that incorporates both potency and efficacy at the 5-HT2C receptor, as compared to the 5-HT2A and 5-HT2B.receptors, is considered important due to the adverse events associated with 5-HT2A and 5-HT2B agonist activity (see introduction). […]
G alpha q-GTPγ[^35S] […] Quantitate the GTPγ[^35] binding by microtiter plate scintillation spectrometry (Wallac Trilux MicroBeta™ scintillation counter). […]
For orientation: GTPγS resists hydrolysis and so accumulates on activated G proteins.

The mark [1] stands for this setting: daily oral dose days 1-15, compared to control animals.

T1 sequence (P41595 whole entry): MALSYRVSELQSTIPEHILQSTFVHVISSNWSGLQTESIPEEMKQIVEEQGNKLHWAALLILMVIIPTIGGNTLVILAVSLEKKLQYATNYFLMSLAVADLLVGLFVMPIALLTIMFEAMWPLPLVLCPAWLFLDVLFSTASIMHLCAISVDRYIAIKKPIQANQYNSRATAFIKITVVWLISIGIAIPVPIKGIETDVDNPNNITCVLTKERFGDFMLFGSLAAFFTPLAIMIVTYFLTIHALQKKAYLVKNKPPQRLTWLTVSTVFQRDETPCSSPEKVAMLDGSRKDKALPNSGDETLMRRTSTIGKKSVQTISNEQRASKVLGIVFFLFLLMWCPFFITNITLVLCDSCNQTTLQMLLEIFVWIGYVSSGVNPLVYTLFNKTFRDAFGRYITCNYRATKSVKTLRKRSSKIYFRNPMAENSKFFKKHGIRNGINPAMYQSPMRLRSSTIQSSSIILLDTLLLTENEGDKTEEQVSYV
Chain of D2 dopaminergic receptor (P14416 whole entry): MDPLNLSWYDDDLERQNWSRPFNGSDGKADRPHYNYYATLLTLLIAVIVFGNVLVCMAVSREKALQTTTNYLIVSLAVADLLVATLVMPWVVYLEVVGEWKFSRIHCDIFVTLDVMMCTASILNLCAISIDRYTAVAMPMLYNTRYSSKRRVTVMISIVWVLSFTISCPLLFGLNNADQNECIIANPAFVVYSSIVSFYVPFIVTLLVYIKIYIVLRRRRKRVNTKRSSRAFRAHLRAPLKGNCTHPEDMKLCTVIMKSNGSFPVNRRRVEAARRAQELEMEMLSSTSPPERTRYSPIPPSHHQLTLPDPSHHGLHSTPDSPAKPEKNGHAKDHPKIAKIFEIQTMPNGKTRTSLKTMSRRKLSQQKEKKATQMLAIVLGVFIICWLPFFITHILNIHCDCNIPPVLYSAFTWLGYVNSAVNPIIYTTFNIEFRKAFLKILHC

`FC(F)(F)CNc1c(Cl)ccc2c1CCNCC2.O=C(O)CCC(=O)O` [Example 2, 7-Chloro-6-(2,2,2-trifluoroethylamino)-2,3,4,5-tetrahydro-1H-benzo[d]azepine Succinic Acid Salt] came in with an IC50 on D2 dopaminergic receptor above 3000 nM. Further, in the assay with male Long-Evans rats (NMR, days -2 and 15), the lean body mass result is recorded as “not changed”. In addition, in the assay with male Long-Evans rats (setting [1]), the “cumulative body weight change” value is recorded as “significantly decrease” and the cumulative food intake result was “significantly decrease”. For the same compound, in the assay on male Long-Evans rats (days -2 and 15), the “source of the decrease in body weight (fat mass by NMR)” value is listed as “loss of adipose tissue”. This compound had an Emax on human 5-HT2B receptor of 33.9 ± 1%. Further, the EC50 on human 5-HT2B receptor (AV12 cell membranes with human 5-HT2B, ± standard error of the mean) is 119 ± 34 nM.

Broadly, the IC50 is the concentration that gives 50% inhibition. By Emax is commonly meant the size of the effect at its maximum, as opposed to the concentration needed. For orientation: EC50 means the concentration needed to bring the measured effect to its halfway point. A lower EC50 goes with greater potency.
